System: SYO-1 tumor spheroids, viability % test/control
Assay: Anticancer human tumor SYO-1 cell line growth inhibition;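 further: spheroids exposed to agents for 7 days before viability read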;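 on viability, T/C: 100% = DMSO vehicle control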
Conditions: spheroids with HUVEC and MSC; for IC50: curve of first compound; for viability, T/C: stronger effect = lower value
Outline: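 Single agents and combinations were tested on spheroids built from tumor cells plus HUVEC and hMSC, at half-log dilutions starting at or near clinical Cmax, else 10 microM; final DMSO 0.25% (v/v).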

Cn1ncnc1[C@H]1c2n[nH]c(=O)c3cc(F)cc(c23)N[C@@H]1c1ccc(F)cc1 + Cn1nnc2c(C(N)=O)ncn2c1=O
IC50 (second compound 1 µM): 16.3 nM
IC50 (second compound 3.16 µM): 12.8 nM
IC50 (second compound 10 µM): < 9.49 nM
IC50 (second compound 31.6 µM): < 9.49 nM
IC50 (second compound 100 µM): < 9.49 nM
viability, T/C (second compound 1 µM, first compound 0.00949 µM): 79.6%
viability, T/C (second compound 1 µM, first compound 0.03 µM): 16.8%
viability, T/C (second compound 1 µM, first compound 0.0949 µM): 4.52%
viability, T/C (second compound 1 µM, first compound 0.3 µM): 2.53%
viability, T/C (second compound 1 µM, first compound 0.949 µM): 1.69%
viability, T/C (second compound 1 µM, first compound 3 µM): 1.94%
viability, T/C (second compound 3.16 µM, first compound 0.00949 µM): 65%
viability, T/C (second compound 3.16 µM, first compound 0.03 µM): 7.02%
viability, T/C (second compound 3.16 µM, first compound 0.0949 µM): 2.83%
viability, T/C (second compound 3.16 µM, first compound 0.3 µM): 2.28%
viability, T/C (second compound 3.16 µM, first compound 0.949 µM): 2.09%
viability, T/C (second compound 3.16 µM, first compound 3 µM): 1.5%
viability, T/C (second compound 10 µM, first compound 0.00949 µM): 4.61%
viability, T/C (second compound 10 µM, first compound 0.03 µM): 2.33%
viability, T/C (second compound 10 µM, first compound 0.0949 µM): 2.35%
viability, T/C (second compound 10 µM, first compound 0.3 µM): 1.79%
viability, T/C (second compound 10 µM, first compound 0.949 µM): 1.63%
viability, T/C (second compound 10 µM, first compound 3 µM): 2.1%
viability, T/C (second compound 31.6 µM, first compound 0.00949 µM): 2.52%
viability, T/C (second compound 31.6 µM, first compound 0.03 µM): 2.5%
viability, T/C (second compound 31.6 µM, first compound 0.0949 µM): 2.35%
viability, T/C (second compound 31.6 µM, first compound 0.3 µM): 1.86%
viability, T/C (second compound 31.6 µM, first compound 0.949 µM): 2%
viability, T/C (second compound 31.6 µM, first compound 3 µM): 1.4%
viability, T/C (second compound 100 µM, first compound 0.00949 µM): 2.64%
viability, T/C (second compound 100 µM, first compound 0.03 µM): 2.03%
viability, T/C (second compound 100 µM, first compound 0.0949 µM): 2.06%
viability, T/C (second compound 100 µM, first compound 0.3 µM): 2.04%
viability, T/C (second compound 100 µM, first compound 0.949 µM): 1.62%
viability, T/C (second compound 100 µM, first compound 3 µM): 1.71%
